In PubChem BioAssay (NCI):
Values joined by “and” are separate entries in the source; they are usually repeats but may differ in a detail not shown here. Equal values may be shown once.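 Protocol summary: plate cells (96-well), add compound at 5 concentrations, incubate 48 h, interpolate endpoints linearly. The concentration for 50% growth inhibition is given as GI50. TGI: total growth inhibition.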

Tests used:
Experiment in all cases: NCI tumour cell line growth inhibition, 48 h
DLD-1 colon = tested on: DLD-1 colon
KM20L2 colon = tested on: KM20L2 colon
SNB-78 CNS = tested on: SNB-78 CNS
P388/ADR leukemia = tested on: P388/ADR leukemia
SN12K1 renal = tested on: SN12K1 renal
DMS 273 small cell lung = tested on: DMS 273 small cell lung
P388 leukemia = tested on: P388 leukemia
XF 498 CNS = tested on: XF 498 CNS
M19-MEL melanoma = tested on: M19-MEL melanoma
HOP-18 NSCLC = tested on: HOP-18 NSCLC
LXFL 529 NSCLC = tested on: LXFL 529 NSCLC
RXF-631 renal = tested on: RXF-631 renal

| SMILES | TGI (DLD-1 colon) | TGI (KM20L2 colon) | TGI (SNB-78 CNS) | TGI (P388/ADR leukemia) [µM] | TGI (SN12K1 renal) [µM] | TGI (DMS 273 small cell lung) [µM] | TGI (P388 leukemia) [µM] | TGI (XF 498 CNS) [µM] | TGI (M19-MEL melanoma) | TGI (HOP-18 NSCLC) [µM] | TGI (LXFL 529 NSCLC) | GI50 (DLD-1 colon) | GI50 (RXF-631 renal) [µM] | TGI (RXF-631 renal) [µM] | GI50 (KM20L2 colon) | GI50 (SNB-78 CNS) | GI50 (DMS 273 small cell lung) [µM] | GI50 (LXFL 529 NSCLC) | GI50 (M19-MEL melanoma) | GI50 (HOP-18 NSCLC) [µM] |
| --- | --- | --- | --- | --- | --- | --- | --- | --- | --- | --- | --- | --- | --- | --- | --- | --- | --- | --- | --- | --- |
| COc1cc2ccc(=O)oc2cc1O | 552 µM | 614 µM | > 625 µM | 103 | 236 | 99.6 | 233 | 337 | 328 µM | 521 | – | – | – | – | – | – | – | – | – | – |
| COc1c(O)c(C=O)c2c(O)c(-c3c(C)cc4c(C(C)C)c(OC)c(O)c(C=O)c4c3O)c(C)cc2c1C(C)C | 15.8 µM | 19.9 µM | 52.3 µM | – | – | 14.9 | – | – | 12.4 µM | – | 12 µM | – | – | – | – | – | – | – | – | – |
| CC(=O)Oc1cc2c(cc1OC(C)=O)OCC(c1ccc(C)cc1)C2 (configuration not stated) | 45.9 µM | 60.5 µM | 55.5 µM | 11.4 | 34 | 48.5 | 20.8 | 32.2 | 23.5 µM | 62.1 | – | – | – | – | – | – | – | – | – | – |
| [Cl][Sn]([c]1ccccc1)([c]1ccccc1)[c]1ccccc1 | 0.14 µM and 0.0282 µM | 0.11 µM and 0.0454 µM | 0.439 µM and 0.0851 µM | – | – | 0.0761 | – | – | 0.0969 µM and 0.043 µM | 0.113 | 0.131 µM and 0.0798 µM | 0.0378 µM and < 0.01 µM | 0.0472 | 0.149 | 0.034 µM and 0.0186 µM | 0.0847 µM and 0.0219 µM | 0.0283 | 0.0353 µM and 0.0227 µM | 0.0306 µM and 0.0181 µM | 0.0293 |
| C/C=C/c1cc(=O)c([C@@H]2OC(=O)c3cc(OC)cc(OC)c32)co1 | – | > 100 µM | – | – | – | – | – | – | > 100 µM | – | 91.6 µM | – | – | – | – | – | – | – | – | – |
| NC(=O)c1cccc([N+](=O)[O-])c1 | > 100 µM | > 100 µM | > 100 µM | – | – | > 100 | – | > 100 | > 100 µM | – | > 100 µM | – | – | – | – | – | – | – | – | – |
| CN(C)C(=O)OC1C(=O)N(C)c2ccc(Cl)cc2C2(c3ccccc3)N1C2(Cl)Cl (configuration not stated) | > 100 µM | > 100 µM | – | – | – | > 100 | – | – | > 100 µM | – | > 100 µM | – | – | – | – | – | – | – | – | – |
